From ChEMBL document CHEMBL6178019, “Discovery of CYP1A1 Inhibitors for Host-Directed Therapy against Sepsis” (J Med Chem, 2025)

Key:
Assay type in all cases: cell-based
[1] = target: T1, CYP1A1 (Homo sapiens, UniProt P04798); assay: Inhibition of CYP1A1 in human Caco-2 cells assessed as relative activity by measuring fold change at 500 nM incubated for 12 hrs by EROD assay relative to control; details: read-out: FC
T1 sequence (P04798 whole entry): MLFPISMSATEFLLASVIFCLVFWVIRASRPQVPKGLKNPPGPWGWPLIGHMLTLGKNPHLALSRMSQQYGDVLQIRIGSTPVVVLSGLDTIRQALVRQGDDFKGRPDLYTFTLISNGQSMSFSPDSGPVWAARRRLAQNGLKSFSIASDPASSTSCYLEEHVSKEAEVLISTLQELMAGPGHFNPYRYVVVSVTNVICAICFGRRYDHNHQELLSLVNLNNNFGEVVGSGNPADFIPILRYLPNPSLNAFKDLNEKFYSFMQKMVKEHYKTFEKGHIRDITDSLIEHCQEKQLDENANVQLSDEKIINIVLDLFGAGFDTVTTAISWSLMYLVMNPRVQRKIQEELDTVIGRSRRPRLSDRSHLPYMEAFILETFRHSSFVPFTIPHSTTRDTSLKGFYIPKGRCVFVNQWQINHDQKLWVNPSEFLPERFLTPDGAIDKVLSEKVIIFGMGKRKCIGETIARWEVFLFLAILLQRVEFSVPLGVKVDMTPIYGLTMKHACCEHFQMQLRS

[2] = target: T2, Cytochrome P450 1A1 (Homo sapiens, UniProt P04798); assay: Inhibition of CYP1A1 in human Caco-2 cells assessed as relative activity by measuring fold change at 5.0 uM incubated for 12 hrs by EROD assay relative to control; details: caco-2, 12 h
T2 sequence (P04798 whole entry): T1 sequence (P04798 whole entry)

[3] = target: T3, CYP1A1 (Mus musculus, UniProt P00184); assay: Inhibition of CYP1A1 in mouse RAW264.7 cells assessed as relative activity by measuring fold change at 500 nM incubated for 12 hrs by EROD assay relative to control; details: read-out: FC
T3 sequence (P00184 whole entry): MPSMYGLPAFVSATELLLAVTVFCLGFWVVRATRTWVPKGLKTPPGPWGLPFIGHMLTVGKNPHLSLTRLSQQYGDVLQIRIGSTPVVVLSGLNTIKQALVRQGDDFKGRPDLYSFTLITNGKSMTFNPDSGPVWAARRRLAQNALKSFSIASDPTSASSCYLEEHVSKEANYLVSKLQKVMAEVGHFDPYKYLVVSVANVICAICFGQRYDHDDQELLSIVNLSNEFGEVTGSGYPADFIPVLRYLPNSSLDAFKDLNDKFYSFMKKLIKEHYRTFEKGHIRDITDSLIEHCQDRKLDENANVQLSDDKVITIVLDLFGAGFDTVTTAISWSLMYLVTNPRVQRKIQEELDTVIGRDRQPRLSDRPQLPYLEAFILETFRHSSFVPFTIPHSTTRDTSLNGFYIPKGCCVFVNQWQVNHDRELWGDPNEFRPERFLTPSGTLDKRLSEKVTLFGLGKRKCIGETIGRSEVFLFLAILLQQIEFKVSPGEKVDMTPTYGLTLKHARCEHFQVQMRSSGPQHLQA

[4] = target: T3, CYP1A1; assay: Inhibition of CYP1A1 in mouse RAW264.7 cells assessed as relative activity by measuring fold change at 5 uM incubated for 12 hrs by EROD assay relative to control; details: read-out: FC

Row | Compound | fold induction at 12 h, 0.5 µM [1] | fold change (FC) [2] | fold induction at 12 h, 0.5 µM [3] | fold induction at 12 h, 5 µM [4]
1 | Cn1c(=O)n(C)c2cc(C(=O)/C=C/c3c(F)c(F)c(F)c(F)c3F)ccc21 | 0.8 | 0.34 | 0.69 | 0.43
2 | Cc1ccc(/C=C/C(=O)c2ccc3c(c2)n(C)c(=O)n3C)cn1 | 0.66 | 0.08 | 0.77 | 0.2
3 | Cn1c(=O)n(C)c2cc(C(=O)/C=C/c3ccc(F)cc3Cl)ccc21 | 0.84 | 0.38 | 0.67 | 0.56
4 | Cn1c(=O)n(C)c2cc(C(=O)/C=C/c3cc(F)c(F)cc3F)ccc21 | 0.35 | 0.1 | 1.11 | 0.79
5 | Cn1c(=O)n(C)c2cc(C(=O)/C=C/C3CC3)ccc21 | 0.71 | 0.12 | 0.8 | 0.38
6 | Cn1c(=O)n(C)c2cc(C(=O)/C=C/c3cccc(OC(F)(F)F)c3)ccc21 | 0.58 | 0.17 | 0.62 | 0.16
7 | Cn1c(=O)n(C)c2cc(C(=O)/C=C/c3ccccn3)ccc21 | 0.83 | 0.88 | 0.9 | 0.16
8 | Cn1c(=O)n(C)c2cc(C(=O)/C=C/C#C[Si](C)(C)C)ccc21 | 0.66 | 0.11 | 0.55 | 0.15
9 | Cn1c(=O)n(C)c2cc(C(=O)/C=C/c3cccnc3)ccc21 | 3.53 | 0.93 | 2.57 | 0.53
10 | Cn1c(=O)n(C)c2cc(C(=O)/C=C/c3ccc(I)o3)ccc21 | 0.5 | 0.18 | 0.75 | 0.55
11 | Cn1cccc1/C=C/C(=O)c1ccc2c(c1)n(C)c(=O)n2C | 0.45 | 0.09 | 1.47 | 1.07
12 | Cn1c(=O)n(C)c2cc(C(=O)/C=C/c3ccccc3P(c3ccccc3)c3ccccc3)ccc21 | 0.72 | 0.16 | 0.86 | 0.31
13 | Cn1c(=O)n(C)c2cc(C(=O)/C=C/c3cc4ccccc4s3)ccc21 | 0.81 | 0.56 | 1.12 | 0.77
14 | Cn1c(=O)n(C)c2cc(C(=O)/C=C/c3ccc(B(O)O)cc3F)ccc21 | 0.45 | 0.14 | 1.02 | 0.66
15 | Cn1c(=O)n(C)c2cc(C(=O)/C=C/C#Cc3ccccc3)ccc21 | 0.85 | 0.39 | 0.79 | 0.49
16 | CC(C)=CCC/C(C)=C/COc1c2ccoc2cc2oc(=O)ccc12 [BERGAMOTTIN] | 0.19 | 0.05 | 0.44 | 0.18
17 | Cn1c(=O)n(C)c2cc(C(=O)/C=C/c3cn(Cc4ccccc4)c4ccccc34)ccc21 | 0.52 | 0.33 | 0.84 | 0.78
18 | Cn1c(=O)n(C)c2cc(C(=O)/C=C/C=C/c3ccccc3)ccc21 | 0.82 | 0.35 | 0.62 | 0.44
19 | Cn1c(=O)n(C)c2cc(C(=O)/C=C/c3ncccn3)ccc21 | 1.05 | 0.88 | 0.73 | 0.72
20 | Cn1c(=O)n(C)c2cc(C(=O)/C=C/c3coc4ccccc34)ccc21 | 1.29 | 0.9 | 0.5 | 0.22
21 | Cn1c(=O)n(C)c2cc(C(=O)/C=C/c3cccnc3Br)ccc21 | 0.63 | 0.22 | 0.94 | 0.22
22 | Cn1c(=O)n(C)c2cc(C(=O)/C=C/c3ccco3)ccc21 | 0.87 | 0.47 | 0.5 | 0.31
23 | Cn1c(=O)n(C)c2cc(C(=O)/C=C/c3cc4ccccc4o3)ccc21 | 0.66 | 0.31 | 0.82 | 0.52
24 | Cn1c(=O)n(C)c2cc(S(=O)(=O)NCc3ccccc3)ccc21 | 1.1 | 0.94 | 1.02 | 0.9
25 | Cn1c(=O)n(C)c2cc(C(=O)/C=C/c3ccc4ccccc4n3)ccc21 | 0.38 | 0.13 | 0.61 | 0.17

The remaining lines, values ahead:

Row | fold induction at 12 h, 0.5 µM [1] | fold change (FC) [2] | fold induction at 12 h, 0.5 µM [3] | fold induction at 12 h, 5 µM [4] | Compound
26 | 0.22 | 0.07 | 0.63 | 0.19 | C#Cc1ccc(/C=C/C(=O)c2ccc3c(c2)n(C)c(=O)n3C)cc1
27 | 1.18 | 0.47 | 0.8 | 0.77 | Cn1c(=O)n(C)c2cc(C(=O)/C=C/c3ccc4ccccc4c3)ccc21
28 | 0.98 | 0.97 | 0.64 | 0.51 | Cn1c(=O)n(C)c2cc(C(=O)/C=C/c3ccc(C(C)(C)C)cc3)ccc21
29 | 0.83 | 0.51 | 0.82 | 0.6 | Cn1c(=O)n(C)c2cc(C(=O)/C=C/c3ccc(C#N)cc3)ccc21
30 | 0.47 | 0.08 | 0.29 | 0.19 | Cn1c(=O)n(C)c2cc(C(=O)/C=C/c3ccc(F)cc3)ccc21
31 | 0.75 | 0.15 | 0.96 | 0.81 | Cn1c(=O)n(C)c2cc(C(=O)/C=C/c3ccc(-c4ccccc4)cc3)ccc21
32 | 0.81 | 0.78 | 1.16 | 1.04 | C#Cc1ccc(/C=C/C(=O)c2ccc(N(C)C(C)=O)cc2)cc1
33 | 0.57 | 0.18 | 0.93 | 0.67 | Cn1c(=O)n(C)c2cc(C(=O)/C=C/c3ccoc3)ccc21
34 | 0.81 | 0.78 | 0.57 | 0.2 | CSc1ccc(/C=C/C(=O)c2ccc3c(c2)n(C)c(=O)n3C)cc1
35 | 2.34 | 3.08 | 1.08 | 1.22 | Cn1c(=O)n(C)c2cc(C(=O)/C=C/c3ccncc3)ccc21
36 | 0.6 | 0.3 | 0.52 | 0.18 | C#Cc1ccc(/C=C/C(=O)c2ccccc2)cc1
37 | 0.76 | 0.43 | 1.12 | 0.57 | C#Cc1ccc(/C=C/C(=O)c2ccc(NC(C)=O)cc2)cc1
38 | 0.83 | 0.86 | 1.1 | 0.91 | O=C(/C=C/c1ccc(F)cc1)c1ccccc1 [4-FLUORO CHALCONE]
39 | 0.32 | 0.07 | 1.42 | 0.8 | Cn1c(=O)n(C)c2cc(C(=O)/C=C/c3cccc(F)c3)ccc21
